The values that follow come from patent publication US9393221B2, “Methods and compounds for reducing intracellular lipid storage” (THE GENERAL HOSPITAL CORPORATION, priority 2011, dated 2016).

Where a name gives a salt, the structure may show the parent alone.

In this assay the test system is ATGL-KO iPSCs. As to the kind of experiment: High throughput iPSC chemical screening, Oil Red O (ORO) lipid accumulation. As to Z-score: test concentration or dose not given here. The format is cell-based, mouse. The note with it: for Z-score: normalized ORO level vs DMSO-treated cells, compound present during 7 days differentiation, 96-well, negative = decrease in lipid accumulation; for Rank in normalized ORO score from screen: glycolytic switch compounds.

For the compound `NS(=O)(=O)c1cc2c(cc1Cl)N=C(CSCc1ccccc1)NS2(=O)=O` [Benzthiazide], the Z-score is listed as −1.594. Still for that read-out and setting: under `CN(C)CCCOc1nn(Cc2ccccc2)c2ccccc12` [Benzydamine hydrochloride] stands −0.3467; under `CC1(C)S[C@@H]2[C@H](NC(=O)Cc3ccccc3)C(=O)N2[C@H]1C(=O)O` [Benzylpenicillin sodium], −0.794. Same read-out and setting: under `C[N+](C)(CCOc1ccccc1)Cc1ccccc1.O=C([O-])c1cc2ccccc2cc1O` [Bephenium hydroxynaphthoate] stands −0.5444; under `CC(C)COCC(CN(Cc1ccccc1)c1ccccc1)N1CCCC1` (centres unmarked) [Bepridil hydrochloride], −1.7961; under `COc1ccc2cc3[n+](cc2c1OC)CCc1cc2c(cc1-3)OCO2` [Berberine chloride], 12.68. As for `COc1c(O)cc2c(c1O)[C@@H]1O[C@H](CO)[C@@H](O)[C@H](O)[C@H]1OC2=O` [Bergenin monohydrate], the Z-score is given as −0.7293.

Regarding `CC[C@H](CC[C@@H](C)[C@H]1CC[C@H]2[C@@H]3CC=C4C[C@@H](O)CC[C@]4(C)[C@H]3CC[C@]12C)C(C)C` [Beta-sistosterol], the Z-score is recorded as −0.8867.

For `CNCCc1ccccn1.CS(=O)(=O)O.CS(=O)(=O)O` [Betahistine mesylate], the Z-score amounted to 1.556. Same read-out and setting: under `C[C@H]1C[C@H]2[C@@H]3CCC4=CC(=O)C=C[C@]4(C)[C@@]3(F)[C@@H](O)C[C@]2(C)[C@@]1(O)C(=O)CO` [Betamethasone] stands −0.1891; under `CC(C)NCC(O)COc1ccc(CCOCC2CC2)cc1` (centres unmarked) [Betaxolol hydrochloride], 1.393. `NCCc1cc[nH]n1` [Betazole hydrochloride]: the Z-score is reported as −0.1702. Consider `CC(C[N+](C)(C)C)OC(N)=O` (centres unmarked) [Bethanechol chloride], for which the Z-score is given as −0.3853. On the same count and under the same terms, under `C[N+]1(C)C[C@H](O)C[C@H]1C(=O)[O-]` [Betonicine] stands 0.1235; under `C=C(C)[C@@H]1CC[C@]2(CO)CC[C@]3(C)[C@H](CC[C@@H]4[C@@]5(C)CC[C@H](O)C(C)(C)[C@@H]5CC[C@]43C)[C@@H]12` [Betulin], −1.4148. For `C=C(C)[C@@H]1CC[C@]2(C(=O)O)CC[C@]3(C)[C@H](CC[C@@H]4[C@@]5(C)CC[C@H](O)C(C)(C)[C@@H]5CC[C@]43C)[C@@H]12` [Betulinic acid], the Z-score is recorded as 0.4119. In the case of `CC(C)(Oc1ccc(CCNC(=O)c2ccc(Cl)cc2)cc1)C(=O)O` [Bezafibrate], the Z-score was −0.2571.

In the case of `CN1CCc2cc3c(cc2[C@H]1[C@@H]1OC(=O)c2c1ccc1c2OCO1)OCO3` [Bicuculline (+)], the Z-score is recorded as −0.5556. Regarding `O=C(O)CCCC[C@@H]1SC[C@@H]2NC(=O)N[C@@H]21` [Biotin], the Z-score came to 0.1016. As for `OC(CCN1CCCCC1)(c1ccccc1)C1CC2C=CC1C2` (centres unmarked) [Biperiden hydrochloride], the “Rank in normalized ORO score from screen” value amounted to 135 and the Z-score is given as −1.1752. The corresponding values for `CC(=O)Oc1ccc(C(c2ccc(OC(C)=O)cc2)c2ccccn2)cc1` [Bisacodyl] are 791 and 0.477. `CC(C)NCC(O)COc1ccc(COCCOC(C)C)cc1` (centres unmarked) [Bisoprolol fumarate] had a Z-score of 0.03425. Turning to `COc1cc2c(cc1O)C[C@H]1c3c(cc(O)c(OC)c3-2)CCN1C` [Boldine], the Z-score is −0.6389.

Consider `CC[N+](C)(C)Cc1ccccc1Br` [Bretylium tosylate], for which the Z-score worked out at 1.9055.

In the case of `CCN[C@H]1CN(CCCOC)S(=O)(=O)c2sc(S(N)(=O)=O)cc21` [Brinzolamide], the Z-score is given as −0.419. In turn, `CCN(CC)CCNC(=O)c1cc(Br)c(N)cc1OC` [Bromopride] had a Z-score of 0.9486.

For the compound `O=C(CCCN1CCC(O)(c2ccc(Br)cc2)CC1)c1ccc(F)cc1` [Bromperidol], the Z-score is reported as −0.6428. Compound `CN(C)CCC(c1ccc(Br)cc1)c1ccccn1` (centres unmarked) [Brompheniramine maleate] came in with a Z-score of 1.885.

For the compound `CCCC(=O)Nc1ncnc2c1ncn2[C@@H]1O[C@@H]2COP(=O)(O)O[C@H]2[C@H]1OC(=O)CCC` [Bucladesine sodium salt], the Z-score was −0.9927. Still for that read-out and setting: as for `CCCC1O[C@@H]2C[C@H]3[C@@H]4CCC5=CC(=O)C=C[C@]5(C)[C@H]4[C@@H](O)C[C@]3(C)[C@]2(C(=O)CO)O1` (some centres unmarked) [Budesonide], the figure is 19.1411; as for `CCCCOc1ccc(CC(=O)NO)cc1` [Bufexamac], 0.678. Still for that read-out and setting: as for `COc1cc(OC)c(C(=O)CCCN2CCCC2)c(OC)c1` [Buflomedil hydrochloride], the figure is −0.0451; as for `CCCCNc1cc(C(=O)O)cc(S(N)(=O)=O)c1Oc1ccccc1` [Bumetanide], −1.3983. On the same count and under the same terms, as for `CCCCN1CCCCC1C(=O)Nc1c(C)cccc1C` (centres unmarked) [Bupivacaine hydrochloride], the figure is 0.0187; as for `CC(NC(C)(C)C)C(=O)c1cccc(Cl)c1` (centres unmarked) [Bupropion hydrochloride], 0.7193; as for `O=C1CC2(CCCC2)CC(=O)N1CCCCN1CCN(c2ncccn2)CC1` [Buspirone hydrochloride], −0.0845. Regarding `CCCCN(CCCC)CCCOC(=O)c1ccc(N)cc1` [Butacaine], the Z-score is listed as −0.9284. In the case of `CCCCOC(=O)c1ccc(N)cc1` [Butamben], the Z-score came out at 0.2903.

In the case of `Clc1ccc(CCC(Cn2ccnc2)Sc2c(Cl)cccc2Cl)cc1` (centres unmarked) [Butoconazole nitrate], the Z-score is listed as −0.4077. For `CCCCOC(=O)c1ccc(O)cc1` [Butylparaben], the “Rank in normalized ORO score from screen” value was found to be 23 and the Z-score was −1.7629. Take `O=C(O)/C=C/c1ccc(O)c(O)c1` [Caffeic acid]: the Z-score is −1.7446.

Take `C=C1CC[C@H](O)C/C1=C/C=C1\CCC[C@]2(C)[C@@H]([C@H](C)/C=C/[C@H](C)C(C)C)CC[C@@H]12` [Calciferol]: the Z-score was 0.2582.

In the case of `CN1CC[C@]23c4ccccc4N[C@H]1[C@]21CCN(C)[C@H]3Nc2ccccc21` [Calycanthine], the Z-score is listed as −0.8381. Regarding `CC[C@@]1(O)C(=O)OCc2c1cc1n(c2=O)Cc2cc3ccccc3nc2-1` [Camptothecine (S,+)], the Z-score came to 21.8871. Same read-out and setting: under `NC(N)=NOCC[C@H](N)C(=O)O.O.O=S(=O)(O)O` [Canavanine sulfate monohydrate (L,+)] stands −0.5687; under `C[C@]12CCC(=O)C=C1C=C[C@@H]1[C@@H]2CC[C@@]2(C)[C@H]1CC[C@@]2(O)CCC(=O)O` [Canrenoic acid potassium salt], −0.274; under `C[C@@]12C(=O)OC(=O)[C@]1(C)[C@H]1CC[C@@H]2O1` [Cantharidin], 18.9862.

For the compound `COc1cc(CNC(=O)CCCC/C=C/C(C)C)ccc1O` [Capsaicin], the Z-score was 0.3383. The same measure, in the same setting: as for `C[C@H](CS)C(=O)N1CCC[C@H]1C(=O)O` [Captopril], the figure is −0.2654; as for `C[N+](C)(C)CCOC(N)=O` [Carbachol], 0.7384. In turn, `NC(=O)N1c2ccccc2C=Cc2ccccc21` [Carbamazepine] gave a Z-score of 0.2892. The same measure, in the same setting: as for `CC1(C)[C@@H](OC(=O)CCC(=O)O)CC[C@]2(C)[C@H]3C(=O)C=C4[C@@H]5C[C@@](C)(C(=O)O)CC[C@]5(C)CC[C@@]4(C)[C@]3(C)CC[C@@H]12` [Carbenoxolone disodium salt], the figure is −1.2656; as for `CCN(CC)CCOCCOC(=O)C1(c2ccccc2)CCCC1` [Carbetapentane citrate], 1.581; as for `CCOC(=O)n1ccn(C)c1=S` [Carbimazole], −0.836. For the compound `NCCC(=O)NCCc1c[nH]cn1` [Carcinine], the Z-score was determined as 0.6838. For the compound `CCCC(C)(COC(N)=O)COC(=O)NC(C)C` (centres unmarked) [Carisoprodol], the Z-score is 0.5591. The same measure, in the same setting: under `CC(C)(C)NCC(O)COc1cccc2c1CCC(=O)N2` (centres unmarked) [Carteolol hydrochloride] stands −0.6876; under `N[C@@H](C(=O)N[C@@H]1C(=O)N2C(C(=O)O)=C(Cl)CS[C@H]12)c1ccccc1` [Cefaclor], −0.5619. Same read-out and setting: as for `CC1=C(C(=O)O)N2C(=O)[C@@H](NC(=O)[C@H](N)c3ccc(O)cc3)[C@H]2SC1` [Cefadroxil], the figure is −0.5419; as for `NC(=O)c1cc[n+](CC2=C(C(=O)[O-])N3C(=O)[C@@H](NC(=O)Cc4cccs4)[C@H]3SC2)cc1` [Cefalonium], −0.8363. Still for that read-out and setting: as for `Cn1nnnc1SCC1=C(C(=O)O)N2C(=O)[C@@H](NC(=O)[C@H](O)c3ccccc3)[C@H]2SC1` [Cefamandole sodium salt], the figure is −0.5703; as for `Cc1nnc(SCC2=C(C(=O)O)N3C(=O)[C@@H](NC(=O)Cn4cnnn4)[C@H]3SC2)s1` [Cefazolin sodium salt], −0.8698. On to `CO/N=C(\C(=O)N[C@@H]1C(=O)N2C(C(=O)O)=C(C[N+]3(C)CCCC3)CS[C@H]12)c1csc(N)n1` [Cefepime hydrochloride], for which the Z-score is reported as 1.172. Same read-out and setting: under `C=CC1=C(C(=O)O)N2C(=O)[C@@H](NC(=O)/C(=N\OCC(=O)O)c3csc(N)n3)[C@H]2SC1` [Cefixime] stands 1.521; under `CO[C@@]1(NC(=O)CSCC#N)C(=O)N2C(C(=O)O)=C(CSc3nnnn3C)CS[C@@H]21` [Cefmetazole sodium salt], −0.8537; under `CCN1CCN(C(=O)N[C@@H](C(=O)N[C@@H]2C(=O)N3C(C(=O)O)=C(CSc4nnnn4C)CS[C@H]23)c2ccc(O)cc2)C(=O)C1=O` [Cefoperazone dihydrate], 0.4847. Compound `NCc1ccccc1CC(=O)N[C@@H]1C(=O)N2C(C(=O)O)=C(CSc3nnnn3CC(=O)O)CS[C@H]12` [Ceforanide] yielded a Z-score of 1.929. Same read-out and setting: as for `CO/N=C(\C(=O)N[C@@H]1C(=O)N2C(C(=O)O)=C(COC(C)=O)CS[C@H]12)c1csc(N)n1` [Cefotaxime sodium salt], the figure is −0.8289.
